Experimental data reported in patent publication US20260306640A1, “TECHNOLOGIES TARGETING CELL STATES” (Auron Therapeutics, Inc., priority 2023, published 2026).

Legend:
KAT2A = KAT2A (Homo sapiens, UniProt Q92830); test: KAT2A degradation, Western Blot (Jess), NCI-H1048 cells; type: cell-based; set-up: degrader, Western blot (Jess); conditions: NCI-H1048 cells, KAT2A, 24 h, Western Blot, vs DMSO; read-out: KAT2A NCI-H1048 DC50
Method: (§1) MOLM-13 cells or NCI-H1048 cells were used for Western Blot analysis of KAT2A degradation. KAT2B degradation can be measured in a similar manner with NCI-H1048 cells.
(§2) H1048 cells were maintained at 37° C. in 5% CO2 and 90% humidity in HITES medium with 5% fetal bovine serum (FBS). HITES medium was […] with the following additions: 0.005 mg/ml Insulin, 0.01 mg/ml Transferrin, 30 nM Sodium selenite, 10 nM Hydrocortisone, 10 nM beta-estradiol, and extra 2 mM L-glutamine (for final concentration of 4.5 mM). Cells were plated in full media at 1 million cells/2 mL in a 6-well tissue culture treated plate with or without compounds for 24 h at 37° C. in 5% CO2.
(§3) MOLM-13 cells or NCI-H1048 cells were washed with PBS, then lysed with RIPA buffer containing 1×protease and phosphatase inhibitors (SantaCruz Biotechnologies Cat #sc-24948A). Protein was isolated by centrifugation at 12,000×g for 10 minutes at 4° C. and supernatant was collected. Protein was quantified via Bradford assay. Samples were diluted to 4 μg lysate in 16 μL RIPA buffer and then 4 μL of Jess Sample Buffer. Samples were heated at 95° C. for 5 minutes. Samples were loaded onto 12-230 kDa Jess™ Separation Module, 8×25 capillary cartridges (SM-W004, Biotechne). Antibodies loaded were: Primary antibody for KAT2A (GCN5L2 (C26A10) Rabbit mAb (3305, CST)) and for KAT2B (PCAF (C14G9)) Rabbit mAb (3378, CST) at 1:1000 and Anti-Rabbit Detection Module for Jess™ (Cat No #DM-001, Biotechne). Signal was detected by chemiluminescence.
(§4) DC50 values were determined from percent reduction of protein as compared to the DMSO control.

KAT2B = KAT2B (Homo sapiens, UniProt Q92831); test: KAT2B degradation, Western Blot (Jess), NCI-H1048 cells; type: cell-based; set-up: degrader, Western blot (Jess); conditions: NCI-H1048 cells, KAT2B, 24 h, Western Blot, vs DMSO; read-out: KAT2B NCI-H1048 DC50
Method: as §1, §2, §3, §4

KAT2A, sequence (Q92830 whole entry): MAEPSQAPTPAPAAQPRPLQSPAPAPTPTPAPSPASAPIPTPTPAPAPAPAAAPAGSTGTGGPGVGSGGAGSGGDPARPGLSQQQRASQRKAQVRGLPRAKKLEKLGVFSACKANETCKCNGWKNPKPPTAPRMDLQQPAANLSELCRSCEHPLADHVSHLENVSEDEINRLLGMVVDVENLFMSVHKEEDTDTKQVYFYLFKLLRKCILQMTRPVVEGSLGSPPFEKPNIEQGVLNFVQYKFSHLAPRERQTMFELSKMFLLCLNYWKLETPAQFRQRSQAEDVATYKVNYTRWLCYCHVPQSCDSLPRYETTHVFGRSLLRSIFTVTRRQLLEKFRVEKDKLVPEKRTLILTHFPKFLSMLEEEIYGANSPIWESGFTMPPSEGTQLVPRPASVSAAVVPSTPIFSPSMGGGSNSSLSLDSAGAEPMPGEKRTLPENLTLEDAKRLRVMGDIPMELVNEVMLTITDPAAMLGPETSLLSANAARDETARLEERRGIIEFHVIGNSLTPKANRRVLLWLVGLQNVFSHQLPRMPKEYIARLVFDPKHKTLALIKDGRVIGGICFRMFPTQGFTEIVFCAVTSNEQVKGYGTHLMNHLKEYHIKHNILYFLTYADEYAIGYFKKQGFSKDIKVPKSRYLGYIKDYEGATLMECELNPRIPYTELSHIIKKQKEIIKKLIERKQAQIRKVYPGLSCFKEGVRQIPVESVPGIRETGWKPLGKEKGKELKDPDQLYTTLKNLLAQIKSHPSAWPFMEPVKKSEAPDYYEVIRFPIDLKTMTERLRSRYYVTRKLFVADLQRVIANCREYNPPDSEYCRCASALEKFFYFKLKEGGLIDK
KAT2B, sequence (Q92831 whole entry): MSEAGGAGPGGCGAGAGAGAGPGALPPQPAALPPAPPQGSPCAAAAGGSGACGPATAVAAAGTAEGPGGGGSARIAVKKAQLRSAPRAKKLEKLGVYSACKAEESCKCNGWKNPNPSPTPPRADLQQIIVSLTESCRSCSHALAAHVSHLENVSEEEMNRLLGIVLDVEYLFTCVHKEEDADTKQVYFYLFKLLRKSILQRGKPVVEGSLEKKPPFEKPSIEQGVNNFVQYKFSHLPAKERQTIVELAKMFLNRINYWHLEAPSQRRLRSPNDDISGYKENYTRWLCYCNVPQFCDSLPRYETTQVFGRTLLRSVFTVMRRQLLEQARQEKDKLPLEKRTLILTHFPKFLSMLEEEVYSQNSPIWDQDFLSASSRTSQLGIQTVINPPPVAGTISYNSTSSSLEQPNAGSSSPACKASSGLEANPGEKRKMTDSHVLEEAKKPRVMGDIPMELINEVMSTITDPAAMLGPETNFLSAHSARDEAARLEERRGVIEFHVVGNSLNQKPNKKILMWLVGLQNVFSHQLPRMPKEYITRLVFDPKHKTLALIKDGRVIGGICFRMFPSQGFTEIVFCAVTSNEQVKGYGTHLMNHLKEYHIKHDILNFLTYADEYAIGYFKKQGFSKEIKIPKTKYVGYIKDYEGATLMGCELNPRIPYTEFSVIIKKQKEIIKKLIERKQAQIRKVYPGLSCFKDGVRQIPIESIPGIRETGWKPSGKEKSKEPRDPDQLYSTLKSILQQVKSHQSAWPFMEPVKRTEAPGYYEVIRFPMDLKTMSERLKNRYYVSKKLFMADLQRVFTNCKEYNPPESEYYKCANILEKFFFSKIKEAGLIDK

Row | Structure (SMILES) | DC50 (KAT2A) | DC50 (KAT2B)
1 | CN1C[C@H](Nc2cnn(C)c(=O)c2Cl)C[C@H](c2ccc(C(=O)N3CCC(Cc4ccc(N5CCC(=O)NC5=O)c(F)c4)CC3)cc2)C1 [Compound 327] | < 1 nM | 1 to 30 nM
2 | CN1C[C@H](Nc2cnn(C)c(=O)c2Cl)C[C@H](c2ccc(C(=O)N3CCC4(CC3)CCN(c3ccc(C5CCC(=O)NC5=O)c(F)c3)CC4)cc2)C1 (stereo partly drawn) [Compound 317] | < 1 nM | < 1 nM
3 | CN1C[C@H](Nc2cnn(C)c(=O)c2Br)C[C@H](c2ccc(C(=O)N3CCC(C#Cc4ccc(C5CCC(=O)NC5=O)cc4)CC3)cc2)C1 (stereo partly drawn) [Compound 334] | < 1 nM | 1 to 30 nM
4 | CN1C[C@H](Nc2cnn(C)c(=O)c2Cl)C[C@H](c2ccc(C(=O)N3CCC4(CC3)CCN(c3ccc5c(C6CCC(=O)NC6=O)cncc5c3)CC4)cc2)C1 (stereo partly drawn) [Compound 296] | < 1 nM | < 1 nM
5 | CN1C[C@H](Nc2cnn(C)c(=O)c2Cl)C[C@H](c2ccc(C(=O)N3CC(c4ccc5c(c4)C(=O)N(C4CCC(=O)NC4=O)C5=O)C3)cc2)C1 (stereo partly drawn) [Compound 198] | 1 to 30 nM | > 30 nM
6 | CN1C[C@H](Nc2cnn(C)c(=O)c2Br)C[C@H](c2ccc(CN3CCN(c4ccc5c(C6CCC(=O)NC6=O)cncc5c4)CC3)cc2)C1 (stereo partly drawn) [Compound 380] | < 1 nM | < 1 nM
7 | CN1C[C@H](Nc2cnn(C)c(=O)c2Br)C[C@H](c2ccc(CN3CCN(c4ccc5c(C6CCC(=O)NC6=O)nccc5c4)CC3)cc2)C1 (stereo partly drawn) [Compound 382] | < 1 nM | < 1 nM
8 | Cc1cc(N2CCC3(CCN(Cc4ccc([C@H]5C[C@@H](Nc6cnn(C)c(=O)c6Cl)CN(C)C5)cc4)CC3)CC2)ccc1C1CCC(=O)NC1=O (stereo partly drawn) [Compound 338] | < 1 nM | < 1 nM
9 | CN1C[C@H](Nc2cnn(C)c(=O)c2Br)C[C@H](c2ccc(C(=O)N3CCC4(CCC(c5ccc(C6CCC(=O)NC6=O)cc5)CC4)CC3)cc2)C1 (stereo partly drawn) [Compound 323] | < 1 nM | < 1 nM
10 | Cc1c(N[C@@H]2C[C@H](c3ccc(C(=O)N4CCC5(CC4)CCN(c4ccc(C6CCC(=O)NC6=O)cc4F)CC5)cc3)CN(C)C2)cnn(C)c1=O (stereo partly drawn) [Compound 225] | < 1 nM | 1 to 30 nM
11 | Cn1ncc(N[C@@H]2C[C@H](c3ccc(C(=O)N4CCC5(CC4)CCN(c4ccc(C6CCC(=O)NC6=O)cc4)CC5)cc3)CN(CC3CC3)C2)c(Br)c1=O (stereo partly drawn) [Compound 425, 3-[4-[3-[4-[(3R,5R)-5-[(5-bromo-1-methyl-6-oxo-pyridazin-4-yl)amino]-1-(cyclopropylmethyl)-3-piperidyl]benzoyl]-3,9-diazaspiro[5.5]undecan-9-yl]phenyl]piperidine-2,6-dione] | < 1 nM | < 1 nM
12 | Cc1c(N[C@@H]2C[C@H](c3ccc(C(=O)N4CCC5(CCC(c6ccc(C7CCC(=O)NC7=O)cc6)CC5)CC4)cc3)CN(C)C2)ccn(C)c1=O (stereo partly drawn) [Compound 315] | < 1 nM | 1 to 30 nM
13 | CN1C[C@H](Nc2cnn(C)c(=O)c2Cl)C[C@H](c2ccc(N3CCC4(CC3)CCN(c3cccc(CN5CCC(=O)NC5=O)c3)CC4)cc2)C1 [Compound 401] | < 1 nM | > 30 nM
14 | CN1C[C@H](Nc2cnn(C)c(=O)c2Cl)C[C@H](c2ccc(C(=O)N3CCC4(CC3)CCN(c3ncc(C5CCC(=O)NC5=O)cn3)CC4)cc2)C1 (stereo partly drawn) [Compound 264] | < 1 nM | < 1 nM
15 | Cc1ncsc1-c1ccc(CNC(=O)[C@@H]2C[C@@H](O)CN2C(=O)[C@@H](NC(=O)CCCCCNC(=O)c2ccc([C@H]3C[C@@H](Nc4cnn(C)c(=O)c4Br)CN(C)C3)cc2)C(C)(C)C)cc1 [Compound 421] | > 30 nM | > 30 nM
16 | Cc1c(N[C@@H]2C[C@H](c3ccc(CN4CCN(c5ccc6c(c5)C(=O)N(C5CCC(=O)NC5=O)C6=O)CC4)cc3)CN(C)C2)cnn(C)c1=O (stereo partly drawn) [Compound 303] | < 1 nM | 1 to 30 nM
17 | Cc1c(N[C@@H]2C[C@H](c3ccc(CN4CCN(c5cc6c(cc5F)C(=O)N(C5CCC(=O)NC5=O)C6=O)CC4)cc3)CN(C)C2)cnn(C)c1=O (stereo partly drawn) [Compound 306] | 1 to 30 nM | > 30 nM
18 | Cc1c(N[C@@H]2C[C@H](c3ccc(C(=O)N4CCC5(CC4)CCN(c4cnc(C6CCC(=O)NC6=O)c(F)c4)CC5)cc3)CN(C)C2)cnn(C)c1=O (stereo partly drawn) [Compound 272] | < 1 nM | > 30 nM
19 | CN1C[C@H](Nc2cnn(C)c(=O)c2Br)C[C@H](c2ccc(C(=O)N3CCC4(CC3)CCN(c3ncc(C5CCC(=O)NC5=O)cn3)CC4)cc2)C1 (stereo partly drawn) [Compound 271] | < 1 nM | < 1 nM
20 | CN1C[C@H](Nc2cnn(C)c(=O)c2Br)C[C@H](c2ccc(CN3CCN(c4cccc(C5CCC(=O)NC5=O)c4)CC34CC4)cc2)C1 (stereo partly drawn) [Compound 348] | < 1 nM | 1 to 30 nM

Row | Structure (SMILES) | DC50 (KAT2A) | DC50 (KAT2B)
21 | CN1C[C@H](Nc2cnn(C)c(=O)c2Br)C[C@H](c2ccc(C(=O)N3CCC(Cc4ccc(C5CCC(=O)NC5=O)c(F)c4)CC3)cc2)C1 (stereo partly drawn) [Compound 328] | < 1 nM | < 1 nM
22 | CN1C[C@H](Nc2cnn(C)c(=O)c2Br)C[C@H](c2ccc(CN3CCN(c4cc(C5CCC(=O)NC5=O)ccn4)CC3)cc2)C1 (stereo partly drawn) [Compound 355] | 1 to 30 nM | > 30 nM
23 | CN1C[C@H](Nc2cnn(C)c(=O)c2Br)C[C@H](c2ccc(CN3Cc4cc5c(cc4C3)C(=O)N(C3CCC(=O)NC3=O)C5=O)cc2)C1 (stereo partly drawn) [Compound 200] | 1 to 30 nM | > 30 nM
24 | Cc1cc(N2CCC3(CCN(C(=O)c4ccc([C@H]5C[C@@H](Nc6cnn(C)c(=O)c6Br)CN(C)C5)cc4)CC3)CC2)ccc1N1CCC(=O)NC1=O [Compound 395] | < 1 nM | < 1 nM
25 | CN1C[C@H](Nc2cnn(C)c(=O)c2Cl)C[C@H](c2ccc(C(=O)N3CCC4(CC3)CCN(c3cccc5c3C(=O)N(C3CCC(=O)NC3=O)C5=O)CC4)cc2)C1 (stereo partly drawn) [Compound 302] | 1 to 30 nM | 1 to 30 nM
26 | CN1C[C@H](Nc2cnn(C)c(=O)c2Cl)C[C@H](c2ccc(CN3CC(c4cccc(C5CCC(=O)NC5=O)c4)C3)cc2)C1 (stereo partly drawn) [Compound 194] | 1 to 30 nM | > 30 nM
27 | CN1C[C@H](Nc2cnn(C)c(=O)c2Br)C[C@H](c2ccc(CN3CCN(c4cccc5c4oc(=O)n5C4CCC(=O)NC4=O)CC3)cc2)C1 (stereo partly drawn) [Compound 196] | < 1 nM | < 1 nM
28 | Cc1c(N[C@@H]2C[C@H](c3ccc(CN4CCN(c5cncc(C6CCC(=O)NC6=O)c5)CC4)cc3)CN(C)C2)cnn(C)c1=O (stereo partly drawn) [Compound 346] | > 30 nM | > 30 nM
29 | Cc1cc(N2CCC3(CCN(C(=O)c4ccc([C@H]5C[C@@H](Nc6cnn(C)c(=O)c6C)CN(C)C5)cc4)CC3)CC2)cnc1C1CCC(=O)NC1=O (stereo partly drawn) [Compound 245] | < 1 nM | 1 to 30 nM
30 | CN1C[C@H](Nc2cnn(C)c(=O)c2Cl)C[C@H](c2ccc(CN3CCN(c4cc(C5CCC(=O)NC5=O)ccn4)CC3)cc2)C1 (stereo partly drawn) [Compound 356] | 1 to 30 nM | > 30 nM
31 | COc1cc(C2CCC(=O)NC2=O)ccc1N1CCC2(CCN(C(=O)c3ccc([C@H]4C[C@@H](Nc5cnn(C)c(=O)c5Cl)CN(C)C4)cc3)CC2)CC1 (stereo partly drawn) [Compound 258] | < 1 nM | > 30 nM
32 | CN1C[C@H](Nc2cnn(C)c(=O)c2Br)C[C@H](c2ccc(C(=O)N3CCC4(CCC(c5ccc(C6CCC(=O)NC6=O)c(F)c5)CC4)CC3)cc2)C1 (stereo partly drawn) [Compound 325] | < 1 nM | < 1 nM
33 | Cc1cc(N2CCC3(CCN(C(=O)c4ccc([C@H]5C[C@@H](Nc6cnn(C)c(=O)c6Br)CN(C)C5)cc4)CC3)CC2)ccc1C1CCC(=O)NC1=O (stereo partly drawn) [Compound 265] | < 1 nM | < 1 nM
34 | CN1C[C@H](Nc2cnn(C)c(=O)c2Cl)C[C@H](c2ccc(C(=O)N3CCC4(CCC(c5ccc6c(C7CCC(=O)NC7=O)cncc6c5)CC4)CC3)cc2)C1 (stereo partly drawn) [Compound 329] | < 1 nM | < 1 nM
35 | Cc1cc(N2CC3(CCN(C(=O)c4ccc([C@H]5C[C@@H](Nc6cnn(C)c(=O)c6Br)CN(C)C5)cc4)CC3)C2)ccc1C1CCC(=O)NC1=O (stereo partly drawn) [Compound 291] | < 1 nM | 1 to 30 nM
36 | CN1C[C@H](Nc2cnn(C)c(=O)c2Br)C[C@H](c2ccc(C(=O)N3CCC4(CC3)CCN(c3ccc(C(=O)NC5CCC(=O)NC5=O)nc3)CC4)cc2)C1 (stereo partly drawn) [Compound 402] | < 1 nM | < 1 nM
37 | CN1C[C@H](Nc2cnn(C)c(=O)c2Cl)C[C@H](c2ccc(C(=O)N3CCC(c4ccc5c(C6CCC(=O)NC6=O)cncc5c4)CC3)cc2)C1 (stereo partly drawn) [Compound 331] | < 1 nM | > 30 nM
38 | CN1C[C@H](Nc2cnn(C)c(=O)c2Cl)C[C@H](c2ccc(CN3C4CC3CN(c3cccc(C5CCC(=O)NC5=O)c3)C4)cc2)C1 (stereo partly drawn) [Compound 354] | 1 to 30 nM | > 30 nM
39 | CN1C[C@H](Nc2ccn(C)c(=O)c2Cl)C[C@H](c2ccc(C(=O)N3CCC4(CCC(c5ccc(C6CCC(=O)NC6=O)cc5)CC4)CC3)cc2)C1 (stereo partly drawn) [Compound 314] | < 1 nM | 1 to 30 nM
